Source: US8288432B2, “Tetrahydroindole derivatives as NADPH oxidase inhibitors” (Genkyotex SA, priority 2007, dated 2012)

Assays:
Format in all cases: cell-based, human
NOX activity in HUVEC = experiment: H2DCF-DA (DCF fluorescence) ROS measurement in TGF-β stimulated HUVEC; conditions: 'usually'
Experimental: Human Umbilical Vein Endothelial Cells (HUVEC)
HUVEC are cultured in endothelial basal medium supplemented with hydrocortisone (1 μg/mL, CalbioChem), bovine brain extract (12 μg/mL), gentamicin (50 μg/mL, CalbioChem), amphotericin B (50 ng/mL, CalBioChem EGF (10 ng/mL, and 10% FCS until the fourth passage. When the fifth passage was started, cells were cultured with a lower concentration of FCS (2%) in the absence of EGF, if not indicated otherwise. All experiments were done with cells of the fifth passage. The cells were incubated with OxLDL (oxidized low-density lipoprotein) or its buffer as control for 24 h, before detection of O2^− formation.
4. 2′,7′-dichlorodihydrofluorescein diacetate (H2DCF-DA)
HUVEC were plated on coverslips and made quiescent overnight in 0.5% BSA before stimulation with TGF-β. Cells were loaded for 10 minutes with 5 μM CM-H2DCFDA in phenol-red-free medium in the dark and then treated with TGF-β (R&D Systems) in the presence or absence of compounds according to the invention. […] DCF fluorescence was visualized at an excitation wavelength of 488 nm and emission at 515 to 540 nm. […] For calculation, the absorbance at […] was normalized to absorbance at […] for each individual well. […] NOX activities were expressed as % of the activity in control cells. […]

[1] = system: NOX activity (ROS in cells); experiment: Chemiluminescence (luminol) measurement of ROS in cells; conditions: 'usually'
Experimental: 3. Chemiluminescence (Luminol)
ROS was measured using the chemiluminescent probe luminol. Cells were cultured and plated as for Amplex Red except that the Amplex Red agent was replaced by 10 μg/mL luminol (Sigma 09235). Light emission was recorded continuously at 37° C. for 60 minutes using the luminescence function of the FluoStar Optima fluorescent plate reader. The mean of the four blank values was subtracted from each corrected value for each time point. NOX activities were expressed as % of the activity in control cells. Residual activity of DPI-treated cells was usually <10%.

[2] = system: NOX activity in DMSO-differentiated HL60 cells; experiment: Amplex Red measurement of extracellular hydrogen peroxide (NOX activity) in DMSO-differentiated HL60 cells; conditions: DPI 10 μM, 'usually'
Experimental: Human acute myeloid leukemia cell line HL-60 was cultured in RPMI 1640 (Invitrogen) supplemented with 10% heat-inactivated calf serum, 2 mM glutamine, 100 U/mL penicillin (Sigma), and 100 μg streptomycin (Sigma) at 37° C. under a humidified atmosphere of 5% CO2. HL60 differentiation to the neutrophil phenotype was triggered by adding Me2SO (final concentration 1.25% v/v for 6 days) to the culture medium.
Extracellular hydrogen peroxide was measured using Amplex UltraRed (Molecular Probes). Cells were trypsinized (1× Trypsin-EDTA), collected by centrifugation, and resuspended in HBSS supplemented with 1% glucose. Cells were seeded into black 96-well plates at a density of 50'000 cells in 200 μl testing buffer (HBSS 1% glucose containing 0.005 U/mL horseradish peroxidase (Roche) and 50 μM Amplex Red in the presence or absence of compounds according to the invention. As a control, DPI was included at a final concentration of 10 μM The plates were placed in the fluorescent Optima Fluorescent plate reader and kept at 37° C. during 20 min. Fluorescence was measured for […] with excitation and emission wavelengths of 544 and 590 nm respectively. NOX activities were expressed as % of the activity in control cells. […]
The table 1 below summarizes the percentage of inhibition of NOX activity as measured by Amplex Red using DMSO-differentiated HL60 cells as described above: […]

[3] = system: NOX activity (superoxide formation in cells); experiment: Nitroblue tetrazolium (NBT) test of intracellular and extracellular superoxide in cell cultures; conditions: DPI 10 μM, 'usually'
Experimental: The activity of the compounds according to the invention may be tested for their activity in the inhibition or reduction of formation of reactive oxygen species (ROS) from oxygen in cells. The activity of the compounds is tested in the following cell cultures by different techniques such as nitroblue tetrazolium, Amplex Red, Chemiluminescence (Luminol) and 2′,7′-dichlorodihydrofluorescein diacetate (H2DCF-DA) according to the protocols detailed below.
Human microglia cell line (HMC3, human microglia clone 3) (Janabi et al, 1995, Neurosci Lett 195:105) were cultured in MEM (Eagle's minimum essential medium) containing 10% FBS with 50 U/mL penicillin G sodium 50 μg/mL streptomycin sulfate, and incubated at 37° C. for 24 hours. IFN-γ (human IFN-γ, Roche. 11 040 596 001) was added to the culture medium for a final concentration of 10 ng/mL 24 h, before detection of O2^− formation. […]
Intracellular and extracellular superoxide was measured by a colorimetric technique using a quantitative nitroblue tetrazolium (NBT) test. SOD-inhibitable conversion of NBT to formazan, a fine blue precipitate, in the presence of superoxide anion was measured using Fluostar Optima spectrometer (BMG labtech). […] The absorption was measured at 630 nm. For calculation, the absorbance at 630 nm was normalized for each individual well. […] NOX activities were expressed as % of the activity in control cells. […]

Measured: Residual activity of DPI-treated cells (NOX activity as % of the activity in control cells)

c1ccc([I+]c2ccccc2)cc1 [DPI, Diphenyliodonium]
< 10%: all assays above
